# Results reported in paper PMC2880208 (Cancer research, 2010).
# Where two headings read alike, the source gives them in different places.
# Assays:
# [1] = tested on: U87 cells; experiment: Drug sensitivity; type: cell-based, human; conditions: U87, gefitinib alone 0.001-50 μM
# [2] = tested on: U87 cells; experiment: Intracellular accumulation of topotecan in vitro; type: cell-based, human; conditions: topotecan 0.1 μM, gefitinib 1 or 10 μM, dose-dependent
# [3] = cited from earlier work
# [4] = tested on: MT330 cells; experiment: Drug sensitivity; type: cell-based, human; conditions: MT330, gefitinib alone 0.001-50 μM
# [5] = tested on: MT330 cells; experiment: Intracellular accumulation of topotecan in vitro; type: cell-based, human; conditions: topotecan 0.1 μM, gefitinib 1 or 10 μM, dose-dependent
# [6] = subcutaneous glioma xenografts, for 8 hours after a single oral dose of 55 mg/kg; cited from earlier work
# [7] = type: in vivo, CD1 athymic nude mice; conditions: CD1 athymic nude, mouse, iv, 4 mg/kg, 4 mg/kg i.v., mean ± SD
# [8] = CD1 nude mice; cited from earlier work
# [9] = Steady-state
# [10] = Intratumor distribution of topotecan; type: in vivo, CD1 nude mice; conditions: U87, TPT25: 25 μg/h topotecan, n=8
"Kp ([7]; brain extracellular fluid (microdialysate) / plasma, Pbrain (brain ECF-to-plasma AUC ratio of unbound topotecan lactone), non-tumor-bearing CD1 nude mice, n=7)","Kp ([7]; Pcontralateral (contralateral brain ECF-to-plasma AUC ratio), U87 tumor-bearing mice, n=5)","Css,plasma (unbound lactone) ([9]; 25 μg/h topotecan infusion, before gefitinib, n=15) [µg/mL]","Css,tECF (unbound topotecan lactone in tumor ECF) ([9]; U87, 25 μg/h topotecan infusion, after gefitinib 200 mg/kg, n=10) [µg/mL]","Css,tECF (unbound topotecan lactone in tumor ECF) ([9]; U87, 25 μg/h topotecan infusion, before gefitinib, n=10) [µg/mL]","Css,tECF (unbound topotecan lactone in tumor ECF) ([9]; U87, TPT12-GEF: 12.5 μg/h topotecan after 200 mg/kg gefitinib, n=3) [µg/mL]","Atot,tumor (total topotecan lactone in tumor homogenate at steady-state) [10] [ng/mg tumor]",SMILES,Effect on cell growth [1],Enhancement of topotecan accumulation by gefitinib [2] [%],Effect of gefitinib on topotecan lactone plasma clearance [3],Effect on cell growth [4],Enhancement of topotecan accumulation by gefitinib [5] [%],Intratumor gefitinib concentration [6] [µM],Unbound fraction in plasma [8] [%]
,,,,,,,COc1cc2ncnc(Nc3ccc(F)c(Cl)c3)c2cc1OCCCN1CCOCC1 [gefitinib],did not substantially affect growth,≤ 36,halves,did not substantially affect growth,≤ 36,> 20,
0.3 ± 0.11,0.42 ± 0.11,0.034 ± 0.008,0.03 ± 0.012,0.022 ± 0.01,0.0064 ± 0.0008,47 ± 21,CC[C@@]1(O)C(=O)OCc2c1cc1n(c2=O)Cc2cc3c(CN(C)C)c(O)ccc3nc2-1 [topotecan],,,,,,,27
